Laboratory results: article PMC10840383, “Clinical features, functional consequences, and rescue pharmacology of missense GRID1 and GRID2 human variants” (Human Molecular Genetics, 2023)
Residue numbers refer to the chain shown, from its start. Like-named read-outs stand apart in the source and are kept apart here.

Assays:
Type in all cases: cell-based
GluD2-A654T = molecular target: T1, GluD2-A654T (Rattus norvegicus, UniProt Q63226, A654T); assay: TEVC of constitutive current, Xenopus oocytes expressing GluD2-A654T (lurcher)
T1 construct: expressed in transfected cells; host or cells: Xenopus laevis oocytes injected with cRNA
T1 sequence (Q63226 24-1007 A654T): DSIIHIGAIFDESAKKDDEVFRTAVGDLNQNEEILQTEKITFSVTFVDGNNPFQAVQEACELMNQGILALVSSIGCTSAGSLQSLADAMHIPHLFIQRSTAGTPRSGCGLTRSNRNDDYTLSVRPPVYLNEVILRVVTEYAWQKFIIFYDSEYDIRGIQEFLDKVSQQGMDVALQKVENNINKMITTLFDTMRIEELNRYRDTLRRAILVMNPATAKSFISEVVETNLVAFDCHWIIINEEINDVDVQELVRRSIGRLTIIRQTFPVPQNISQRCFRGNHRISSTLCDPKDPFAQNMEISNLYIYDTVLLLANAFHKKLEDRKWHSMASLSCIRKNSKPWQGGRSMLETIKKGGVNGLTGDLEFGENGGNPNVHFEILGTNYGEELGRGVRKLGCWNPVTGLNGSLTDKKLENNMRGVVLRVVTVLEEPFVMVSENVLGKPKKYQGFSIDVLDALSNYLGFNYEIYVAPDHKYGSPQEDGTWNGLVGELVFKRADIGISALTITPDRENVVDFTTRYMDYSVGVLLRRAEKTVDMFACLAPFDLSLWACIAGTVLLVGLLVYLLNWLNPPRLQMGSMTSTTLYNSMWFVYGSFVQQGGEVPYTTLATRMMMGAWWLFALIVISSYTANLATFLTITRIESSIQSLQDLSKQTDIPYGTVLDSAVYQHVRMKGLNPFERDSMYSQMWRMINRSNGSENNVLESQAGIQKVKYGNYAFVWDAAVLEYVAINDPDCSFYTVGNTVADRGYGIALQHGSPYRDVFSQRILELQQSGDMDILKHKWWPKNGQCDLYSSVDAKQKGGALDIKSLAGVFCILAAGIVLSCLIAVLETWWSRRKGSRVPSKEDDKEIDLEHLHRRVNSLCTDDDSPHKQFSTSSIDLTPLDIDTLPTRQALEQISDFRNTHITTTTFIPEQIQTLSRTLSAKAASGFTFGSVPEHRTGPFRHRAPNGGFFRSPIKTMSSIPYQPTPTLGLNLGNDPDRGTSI

GluD1-T649I = molecular target: T2, GluD1-T649I (Homo sapiens, UniProt Q9ULK0, T649I); assay: TEVC of constitutive current, Xenopus oocytes expressing GluD1-T649I; settings: positive = increase, negative = decrease of activity
T2 construct: expressed in transfected cells; host or cells: Xenopus laevis oocytes injected with cRNA
T2 sequence (Q9ULK0 21-1009 T649I): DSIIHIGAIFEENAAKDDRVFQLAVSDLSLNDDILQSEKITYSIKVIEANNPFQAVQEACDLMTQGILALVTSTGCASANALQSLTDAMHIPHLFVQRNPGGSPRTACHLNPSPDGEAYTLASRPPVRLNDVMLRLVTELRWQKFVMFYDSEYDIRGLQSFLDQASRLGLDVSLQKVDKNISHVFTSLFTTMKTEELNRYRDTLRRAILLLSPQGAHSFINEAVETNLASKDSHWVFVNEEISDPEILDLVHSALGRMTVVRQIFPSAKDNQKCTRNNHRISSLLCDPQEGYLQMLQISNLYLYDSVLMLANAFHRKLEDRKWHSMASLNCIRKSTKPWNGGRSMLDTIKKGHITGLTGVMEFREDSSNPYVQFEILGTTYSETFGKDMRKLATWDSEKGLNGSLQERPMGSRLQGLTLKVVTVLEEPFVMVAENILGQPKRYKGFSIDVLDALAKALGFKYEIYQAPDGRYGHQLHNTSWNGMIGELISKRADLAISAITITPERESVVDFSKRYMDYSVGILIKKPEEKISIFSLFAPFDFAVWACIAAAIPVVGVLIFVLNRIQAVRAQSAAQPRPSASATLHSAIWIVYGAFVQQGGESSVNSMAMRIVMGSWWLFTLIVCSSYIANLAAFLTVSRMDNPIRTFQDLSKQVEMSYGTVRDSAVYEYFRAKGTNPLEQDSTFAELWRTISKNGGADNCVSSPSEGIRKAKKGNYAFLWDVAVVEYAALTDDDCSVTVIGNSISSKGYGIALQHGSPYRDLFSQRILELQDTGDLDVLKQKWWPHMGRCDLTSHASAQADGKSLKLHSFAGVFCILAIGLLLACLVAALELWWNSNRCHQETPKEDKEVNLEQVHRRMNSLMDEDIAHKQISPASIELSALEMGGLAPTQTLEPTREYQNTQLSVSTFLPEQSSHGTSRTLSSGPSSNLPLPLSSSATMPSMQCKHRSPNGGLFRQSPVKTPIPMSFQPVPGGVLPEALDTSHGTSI

GluD2-T649M = molecular target: T3, GluD2-T649M (Rattus norvegicus, UniProt Q63226, T649M); assay: TEVC of constitutive current, Xenopus oocytes expressing GluD2-T649M; settings: positive = increase, negative = decrease of activity
T3 construct: expressed in transfected cells; host or cells: Xenopus laevis oocytes injected with cRNA
T3 sequence (Q63226 24-1007 T649M): T1 sequence (Q63226 24-1007 A654T) with T626M, T631A

With [Ca+2] [Ca^2+] as the compound, how does the “Ca2+ EC50 of the relation Ca2+ concentration vs D-serine IC50” value (GluD2-A654T; Hill fit, Fig. S7A) read?
Its value is 590 µM.

And the “Hill slope of the relation Ca2+ concentration vs D-serine IC50” value (GluD2-A654T; Hill fit, Fig. S7A)?
Its value is 1.1.

And the “Ca2+ % Max (NMDG+ − Na+) Mean ± SEM” value (GluD2-A654T; normalized to NMDG+ − Na+ difference current)?
The value was 299 ± 5.8 (32) %.

What about the EC50 (GluD2-A654T; potentiation of constitutive current, read-out: Ca2+ EC50 [95% CI]) of the same compound?
The EC50 was 150 µM.

What about the “Ca2+ EC50 A654T/EC50 variant” value (GluD2-A654T; ratio) of the same compound?
The value was 1.0.

Which results are given for N[C@H](CO)C(=O)O [D-serine]?
D-Serine effect (Baseline −10 mM D-Serine) (GluD1-T649I; 10 mM D-serine): 8.9 ± 1.2 (9) nA; D-Serine effect (Baseline −10 mM D-Serine) (GluD2-T649M; 10 mM D-serine): −0.31 ± 2.8 (16) nA; D-serine Hill slope (GluD2-A654T; 1 mM Ca2+, Fig. S7B): 2.5; D-serine Maximum (GluD2-A654T; 1 mM Ca2+, Fig. S7B): 73%; Reduction of maximum possible activity (Na+ −NMDG+ difference current) by D-serine (GluD2-A654T; 10 mM D-serine): ~ 50%; D-Serine effect (Baseline −10 mM D-Serine) (GluD2-A654T; 10 mM D-serine, positive = increase, negative = decrease of activity): −1000 ± 130 (14) nA; D-serine % Max (NMDG+ − Na+) Mean ± SEM (GluD2-A654T; percent of constitutive leak current (NMDG+/Na+ difference current)): 51 ± 1.3 (32) %

How did the IC50 (GluD2-A654T; inhibition of constitutive current, read-out: Memantine IC50) turn out when CC12CC3CC(C)(C1)CC(N)(C3)C2 [Memantine, memantine] was run?
The IC50 was 89 µM.

Which “Pentamidine effect (Baseline −100 μM Pentamidine)” value (“Pentamidine effect” below) (GluD1-T649I; 100 μM pentamidine) does the source give for N=C(N)c1ccc(OCCCCCOc2ccc(C(=N)N)cc2)cc1 [Pentamidine, pentamidine] here?
Its value is −45 ± 9.5 (9) nA.

And the “Pentamidine effect” value (GluD2-T649M; 100 μM pentamidine)?
Its value is 5.8 ± 7.0 (16) nA.

And the “Pentamidine effect” value (GluD2-A654T; 100 μM pentamidine, positive = increase, negative = decrease of activity)?
The value was −930 ± 130 (14) nA.

What about the IC50 (GluD2-A654T; read-out: Pentamidine IC50) of the same compound?
Its IC50 is 9.6 µM.
